According to patent EP4656642A1, “ESTROGEN RECEPTOR PROTEOLYSIS TARGETING CHIMERA COMPOUND AND USE THEREOF” (GAN & LEE PHARM CO., LTD, priority 2023, dated 2024):

How the values were obtained:
Type in all cases: cell-based
MCF-7 cells = experiment: Inhibition of cell proliferation of MCF-7 cells (CCK-8, 9 days); details: treated for 9 days, CCK-8 kit (Table 6)
Procedure, shortened: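 Read-out was CCK-8 viability after 9-day continuous exposure (37°C, 5% CO2) of MCF-7 cells plated at 800/well in 10% FBS DMEM across several compound concentrations. Values are proliferation IC50s.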

ERα [1] = molecular target: T1, ERα (Homo sapiens, UniProt P03372); experiment: Degradation of ERα in T-47D cells (immunoblotting, 4 h); set-up: host or cells: T-47D
T1 sequence (P03372 1-595): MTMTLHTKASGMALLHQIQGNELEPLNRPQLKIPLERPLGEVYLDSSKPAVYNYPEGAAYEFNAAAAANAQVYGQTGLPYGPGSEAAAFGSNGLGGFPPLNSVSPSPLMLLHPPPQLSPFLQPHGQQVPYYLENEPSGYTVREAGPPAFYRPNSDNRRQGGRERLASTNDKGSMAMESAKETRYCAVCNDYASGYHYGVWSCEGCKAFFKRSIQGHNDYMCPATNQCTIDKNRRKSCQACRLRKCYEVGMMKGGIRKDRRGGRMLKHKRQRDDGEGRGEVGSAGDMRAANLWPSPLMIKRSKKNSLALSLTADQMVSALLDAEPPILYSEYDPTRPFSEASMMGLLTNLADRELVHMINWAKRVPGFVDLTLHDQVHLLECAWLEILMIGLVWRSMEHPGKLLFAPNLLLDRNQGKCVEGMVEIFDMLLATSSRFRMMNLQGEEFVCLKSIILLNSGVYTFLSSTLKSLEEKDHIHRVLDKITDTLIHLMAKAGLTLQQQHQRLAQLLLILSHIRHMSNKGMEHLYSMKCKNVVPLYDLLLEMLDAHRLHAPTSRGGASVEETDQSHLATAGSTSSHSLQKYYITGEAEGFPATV
Procedure, shortened: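 ERα protein levels were assessed by immunoblot of RIPA lysates (with protease inhibitor) after 4 h exposure at 37°C. Compound was added in DMSO to T-47D cells at final concentrations of 0.15-1000 nM.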

ERα [2] = molecular target: T1, ERα; experiment: Degradation of ERα in MCF-7 cells (immunoblotting, 4 h)
Procedure, shortened: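 Degradation rate reflects ERα band intensity, corrected to an internal reference protein, relative to control. Values come from Western blotting of lysates from MCF-7 cells exposed 4 h at 37°C to compounds at final concentrations of 0.15-1000nM.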

Compound | IC50 (MCF-7 cells) [nM] | Degradation rate (%) of ERα in T-47D cells (ERα [1]; 1nM compound) [%] | Degradation rate (%) of ERα in T-47D cells (ERα [1]; 10nM compound) [%] | Degradation rate (%) of ERα in MCF-7 cells (ERα [2]; 1nM compound) [%] | Degradation rate (%) of ERα in MCF-7 cells (ERα [2]; 10nM compound) [%]
C[C@@H]1Cc2c(ccc3[nH]ncc23)C(c2ccc(N3CCC4(CCN(C(=O)CN5CCC6(CC5)COc5c6ccc6c5CN(C5CCC(=O)NC5=O)C6=O)C4)CC3)cn2)N1CC(F)(F)F (some centres unmarked) [J14] | 9660 | 55 | 74 | 5 | 39
O=C1CCC(N2C(=O)c3cc4c(cc3C2=O)OC2(CCN(C3CC5(CCN(c6ccc([C@@H]7c8ccc(O)cc8CC[C@@H]7c7ccccc7)cc6)CC5)C3)CC2)C4)C(=O)N1 (some centres unmarked) [K1] | 511 | 7 | 27 | -2 | -3
O=C1CCC(N2Cc3c(ccc4c3OC3(CC4)CCN(C4CN(C5CCN(c6ccc([C@@H]7c8ccc(O)cc8CC[C@@H]7c7ccccc7)cc6)CC5)C4)CC3)C2=O)C(=O)N1 (some centres unmarked) [K2] | 1990 | 8 | 16 | -10 | 3
O=C1CCC(N2Cc3c(ccc4c3OCC43CCN(C4CC5(CCN(C6CCN(c7ccc([C@@H]8c9ccc(O)cc9CC[C@@H]8c8ccccc8)cc7)CC6)CC5)C4)CC3)C2=O)C(=O)N1 (some centres unmarked) [K4] | < 0.256 | 42 | 72 | 48 | 53
O=C1CCC(N2Cc3c(ccc4c3OCC43CCN(CC4CCN(C5CCN(c6ccc([C@@H]7c8ccc(O)cc8CC[C@@H]7c7ccccc7)cc6)CC5)CC4)CC3)C2=O)C(=O)N1 (some centres unmarked) [K6] | 724 | 36 | 58 | 17 | 62
O=C1CCC(N2Cc3c(ccc4c3OCC43CCN(C4CC5(C4)CN(C4CCN(c6ccc([C@@H]7c8ccc(O)cc8CC[C@@H]7c7ccccc7)cc6)CC4)C5)CC3)C2=O)C(=O)N1 (some centres unmarked) [K12] | 30 | 18 | 60 | 3 | 44
O=C1CCC(N2Cc3cc4c(cc3C2=O)OC2(CC4)CN(C3CCC4(CC3)CCN(C3CCN(c5ccc([C@@H]6c7ccc(O)cc7CC[C@@H]6c6ccccc6)cc5)CC3)CC4)C2)C(=O)N1 (some centres unmarked) [K14] | 220 | 20 | 67 | -3 | 14
O=C1CCC(N2Cc3c(ccc4c3OCC43CCN(C4CC5(CCC6(CCN(C7CCN(c8ccc([C@@H]9c%10ccc(O)cc%10CC[C@@H]9c9ccccc9)cc8)CC7)CC6)CC5)C4)CC3)C2=O)C(=O)N1 (some centres unmarked) [K15] | 196 | 18 | 35 | 16 | 42
CC1CC(N2CCC3(CC2)COc2c3ccc3c2CN(C2CCC(=O)NC2=O)C3=O)CCN1C1CC2(CCN(c3ccc(C4c5ccc(O)cc5CCC4c4ccccc4)cc3)CC2)C1 (centres unmarked) [K18] | 12.6 | 42 | 79 | 43 | 80
CC1(C)CC(N2CCC3(CC2)COc2c3ccc3c2CN(C2CCC(=O)NC2=O)C3=O)CCN1C(=O)C1CCN(c2ccc([C@@H]3c4ccc(O)cc4CC[C@@H]3c3ccccc3)cc2)CC1 (some centres unmarked) [K28] | 8.18 | 62 | 86 | 66 | 86
CN(C)C(=O)[C@@H]1CC(N2CCC3(CC2)COc2c3ccc3c2CN(C2CCC(=O)NC2=O)C3=O)CCN1C(=O)C1CCN(c2ccc([C@@H]3c4ccc(O)cc4CC[C@@H]3c3ccccc3)cc2)CC1 (some centres unmarked) [K29] | 19.5 | 46 | 79 | 43 | 66
O=C1CCC(N2Cc3c(ccc4c3OCC43CCN(C4CCN(C(=O)C5CCN(c6ccc(C7c8ccc(O)cc8CCC7c7ccccc7)cc6)CC5)C(C(=O)N5CCCC5)C4)CC3)C2=O)C(=O)N1 (centres unmarked) [K30] | 7.34 | 63 | 73 | 48 | 55
O=C1CCC(N2Cc3c(ccc4c3OCC43CCN(C4CCN(C(=O)C5CCN(c6ccc(C7c8ccc(O)cc8CCC7c7ccccc7)cc6)CC5)C(C(=O)N5CCCCC5)C4)CC3)C2=O)C(=O)N1 (centres unmarked) [K31] | 1.53 | 73 | 79 | 61 | 65
CN(C)C(=O)[C@H]1CC(N2CCC3(CC2)COc2c3ccc3c2CN(C2CCC(=O)NC2=O)C3=O)CCN1C1CC2(CCN(c3ccc([C@@H]4c5ccc(O)cc5CC[C@@H]4c4ccccc4)cc3)CC2)C1 (some centres unmarked) [K32] | 0.779 | 67 | 90 | 66 | 88
O=C1CCC(N2Cc3c(ccc4c3OCC43CCN(C(=O)C4CN(CC5CCN(c6ccc([C@@H]7c8ccc(O)cc8CC[C@@H]7c7ccccc7)cc6)CC5)C4)CC3)C2=O)C(=O)N1 (some centres unmarked) [K33] | 17.5 | 58 | 70 | 57 | 62
O=C1CCC(N2Cc3c(ccc4c3OCC43CCN(C(=O)C4CCN(CC5CCN(c6ccc([C@@H]7c8ccc(O)cc8CC[C@@H]7c7ccccc7)cc6)CC5)CC4)CC3)C2=O)C(=O)N1 (some centres unmarked) [K34] | 10.5 | 76 | 86 | 75 | 76
N#CC1(C(=O)N2CCC(N3CCC4(CC3)COc3c4ccc4c3CN(C3CCC(=O)NC3=O)C4=O)CC2)CCN(c2ccc([C@@H]3c4ccc(O)cc4CC[C@@H]3c3ccccc3)cc2)CC1 (some centres unmarked) [K35] | 32.8 | 60 | 72 | 46 | 64
O=C1CCC(N2Cc3c(ccc4c3OCC43CCN(C(=O)C4CCN(C(=O)C5CCN(c6ccc([C@@H]7c8ccc(O)cc8CC[C@@H]7c7ccccc7)cc6)CC5)CC4)CC3)C2=O)C(=O)N1 (some centres unmarked) [K36] | 15.2 | 54 | 76 | 20 | 61
CN(C(=O)CN1CCC2(CC1)COc1c2ccc2c1CN(C1CCC(=O)NC1=O)C2=O)C1CCN(c2ccc([C@@H]3c4ccc(O)cc4CC[C@@H]3c3ccccc3)cc2)CC1 (some centres unmarked) [K37] | 2510 | 48 | 56 | 20 | 23
O=C1CCC(N2Cc3cc4c(cc3C2=O)OC2(CC4)CN(CC3CCN(C(=O)C4CCN(c5ccc([C@@H]6c7ccc(O)cc7CC[C@@H]6c6ccccc6)cc5)CC4)CC3)C2)C(=O)N1 (some centres unmarked) [K39] | 59 | 15 | 69 | 30 | 56
O=C1CCC(N2Cc3cc4c(cc3C2=O)CCC2(CN(CC3CCN(C(=O)C5CCN(c6ccc([C@@H]7c8ccc(O)cc8CC[C@@H]7c7ccccc7)cc6)CC5)CC3)C2)O4)C(=O)N1 (some centres unmarked) [K40] | 2350 | 40 | 77 | 14 | 45
O=C1CCC(N2Cc3c(ccc4c3OCC43CCN(C(=O)CN4CCN(C(=O)C5CCN(c6ccc([C@@H]7c8ccc(O)cc8CC[C@@H]7c7ccccc7)cc6)CC5)CC4)CC3)C2=O)C(=O)N1 (some centres unmarked) [K43] | 3070 | 66 | 84 | 23 | 69
